Columns and labels:
HIV-1 TAR RNA = test: RNA cleavage reaction, HIV-1 TAR substrate; assay type: biochemical; details: 40 μM, not bound to RNA-binding protein (control)
Experimental: The above described polypeptides were tested for their ability to cleave RNA substrates which contained cognate binding sites. Typically, RNA target molecules containing the binding sites were 5'-end-labeled, purified on denaturing polyacrylamide gels, and annealed for use as substrates for cleavage (Example 2). A typical cleavage reaction contained 10^3 cpm of end-labeled RNA and 40-100 ng of polypeptide. Example 4A describes RNA cleavage reactions utilizing the TAT24C-phen polypeptide. The target RNA was incubated with TAT24C-phen at 25° C. for 10 min before the cleavage was initiated by adding CuSO4 and mercaptopropionic acid. After incubating for a given period of time, the reaction was stopped by the addition of 2,9-dimethyl-1,10-phenanthroline. RNAs were then isolated and analyzed on denaturing 15% sequencing gels. […] This is an expected site of cleavage based on binding of the polypeptide at the three-nucleotide bulge. A possible secondary cleavage site may be due to flexibility of the phenothroline-containing protein of the polypeptide, allowing it to reach to stem on the other side of the binding site.
Cleavage reactions using the polypeptide-cleaving reagents of the present invention were typically performed as follows. […]
RNAs from all reactions were ethanol precipitated and analyzed on a denaturing (8.3 M urea) 15% polyacrylamide gel. […]

[1] = system: wild-type TAR (wt-TAR) site; details: RNA containing the TAR site; cited from earlier work
[2] = system: HIV-1 LTR-linked gene expression; details: TAT protein taken up by cells; cited from earlier work

## Cu(II)-1,10-phenanthroline
HIV-1 TAR RNA
  cleavage pattern on HIV-1 TAR by free Cu(II)-phenanthroline: cleaves everywhere, but the unpaired bases at the loop (especially G32) and the bulge are most reactive

## synthetic 14-residue polypeptide: synthetic polypeptide spanning the basic region, amino acid residues 48-61 of the TAT protein (GRKKRRQRRRAHQN; UniProt P04608 48-61, looked up, fragment)
[1]
  binding to TAR-RNA (in words): bound TAR-RNA as well

B1: TAT protein: HIV-1 encoded 86 amino acid transactivator protein (protein)
chain: MEPVDPRLEPWKHPGSQPKTACTNCYCKKCCFHCQVCFITKALGISYGRKKRRQRRRPPQGSQTHQVSLSKQPTSQSRGDPTGPKE
[2]
  effect on HIV-1 LTR-linked gene expression: specifically activates HIV-1 LTR-linked gene expression

From patent US6063612A, “Antiviral reagents based on RNA-binding proteins” (priority 1991, dated 2000)
